Measurements reported in article PMC7342775 (European journal of medicinal chemistry, 2020).

Legend:
α1β3γ2 GABAAR [1] = conditions: cited from earlier work; for selectivity favoring the etomidate site / selectivity favoring the R-mTFD-MPAB sites: 4-substituted propofols
α1β3γ2L GABAARs [2] = target: T1, α1β3γ2L GABAARs (Homo sapiens, UniProt P14867+P18507+P28472); test: Modulation of [3H]muscimol binding, native HEK cell membranes
α1β3γ2 GABAAR [3] = test: Selectivity between etomidate and R-mTFD-MPAB sites; format: binding, human
α1β3γ2L GABAARs [4] = target: T1, α1β3γ2L GABAARs; test: Two-microelectrode voltage-clamp electrophysiology in Xenopus oocytes, wild type
α1β3γ2L GABAARs [5] = target: T1, α1β3γ2L GABAARs; test: [3H]pTFD-di-iPr-BnOH photolabeling and its inhibition; format: binding; conditions: with GABA; for inhibition of [3H]pTFD-di-iPr-BnOH photoincorporation into the β subunit: 300 μM etomidate, 30 μM allopregnanolone, fluorography
α1β3 GABAARs = target: T2, α1β3 GABAARs (Homo sapiens, UniProt P14867+P28472); test: Modulation of [3H]muscimol binding, α1β3 receptors
T2 sequence (P14867 28-456): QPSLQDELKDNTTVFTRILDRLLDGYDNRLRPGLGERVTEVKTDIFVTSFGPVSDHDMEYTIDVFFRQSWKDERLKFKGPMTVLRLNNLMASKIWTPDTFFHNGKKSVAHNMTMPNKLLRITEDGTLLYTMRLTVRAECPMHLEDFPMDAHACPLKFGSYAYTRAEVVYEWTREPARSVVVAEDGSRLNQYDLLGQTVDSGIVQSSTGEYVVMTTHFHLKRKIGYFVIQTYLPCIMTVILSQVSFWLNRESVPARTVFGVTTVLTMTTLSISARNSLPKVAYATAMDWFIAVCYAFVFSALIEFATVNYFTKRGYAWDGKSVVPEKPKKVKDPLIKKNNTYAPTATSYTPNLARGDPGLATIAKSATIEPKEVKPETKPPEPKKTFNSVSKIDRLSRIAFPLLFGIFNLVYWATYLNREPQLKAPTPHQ
T2 sequence (P28472 26-473): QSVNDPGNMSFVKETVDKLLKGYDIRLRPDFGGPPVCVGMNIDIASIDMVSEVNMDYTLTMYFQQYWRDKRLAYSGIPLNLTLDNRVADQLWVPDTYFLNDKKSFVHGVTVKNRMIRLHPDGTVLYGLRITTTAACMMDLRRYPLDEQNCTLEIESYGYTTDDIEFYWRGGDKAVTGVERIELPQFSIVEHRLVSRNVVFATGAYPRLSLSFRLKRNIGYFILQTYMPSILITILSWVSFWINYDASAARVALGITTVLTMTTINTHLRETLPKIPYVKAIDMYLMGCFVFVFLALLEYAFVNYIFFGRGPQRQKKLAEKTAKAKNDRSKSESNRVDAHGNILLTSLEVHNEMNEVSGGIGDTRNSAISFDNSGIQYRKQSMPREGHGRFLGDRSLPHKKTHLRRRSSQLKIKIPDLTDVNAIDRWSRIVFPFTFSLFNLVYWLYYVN

α1β3γ2L GABAARs [6] = target: T1, α1β3γ2L GABAARs; test: Inhibition of [3H]R-mTFD-MPAB photolabeling; format: binding
α1(S270I)β3γ2L receptors = α1(S270I)β3γ2L receptors (Homo sapiens, UniProt P14867+P18507+P28472, S297I); test: Oocyte electrophysiology, enhancement of low-GABA currents, α1 S270I mutant; format: cell-based; conditions: for enhancement of GABA currents compared to wild type: 5 μM etomidate, 8 μM R-mTFD-MPAB
α1β3γ2L GABAARs [7] = target: T1, α1β3γ2L GABAARs; test: Inhibition of [3H]azietomidate photolabeling; format: binding; conditions: in the presence of 300 μM etomidate
Xenopus laevis tadpoles = test: Loss of righting reflexes; format: in vivo

T1 sequence (P18507 40-475, one chain of several): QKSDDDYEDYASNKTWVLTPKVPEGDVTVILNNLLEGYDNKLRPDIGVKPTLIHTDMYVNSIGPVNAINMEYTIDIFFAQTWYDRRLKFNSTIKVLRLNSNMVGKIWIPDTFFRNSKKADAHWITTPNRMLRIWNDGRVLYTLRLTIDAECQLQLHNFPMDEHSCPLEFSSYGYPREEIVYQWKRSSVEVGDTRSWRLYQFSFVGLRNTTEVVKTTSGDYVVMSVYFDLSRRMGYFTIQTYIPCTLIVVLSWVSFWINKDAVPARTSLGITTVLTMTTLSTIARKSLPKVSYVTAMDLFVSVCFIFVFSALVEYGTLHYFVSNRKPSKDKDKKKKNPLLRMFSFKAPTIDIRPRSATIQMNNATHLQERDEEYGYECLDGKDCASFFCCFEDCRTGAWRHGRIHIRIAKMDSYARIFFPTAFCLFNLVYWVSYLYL
Chain of α1(S270I)β3γ2L receptors (P14867 28-456 S297I, one chain of several): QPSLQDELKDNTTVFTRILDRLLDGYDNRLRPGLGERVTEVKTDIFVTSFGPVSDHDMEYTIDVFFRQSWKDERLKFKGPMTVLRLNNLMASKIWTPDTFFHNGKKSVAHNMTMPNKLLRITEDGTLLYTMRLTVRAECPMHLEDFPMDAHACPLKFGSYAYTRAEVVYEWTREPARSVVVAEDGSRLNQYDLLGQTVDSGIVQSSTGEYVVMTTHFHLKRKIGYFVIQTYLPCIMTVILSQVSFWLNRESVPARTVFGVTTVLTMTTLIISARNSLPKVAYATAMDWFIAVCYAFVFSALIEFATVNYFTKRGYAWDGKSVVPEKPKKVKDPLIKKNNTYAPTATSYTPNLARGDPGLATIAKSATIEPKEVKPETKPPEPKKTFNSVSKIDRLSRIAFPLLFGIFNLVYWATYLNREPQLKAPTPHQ
Chain of α1(S270I)β3γ2L receptors (P18507 40-475, one chain of several): as the sequence (P18507 40-475, one chain of several) above

SMILES: CC(C)c1cc(Cl)cc(C(C)C)c1O [4-Cl-propofol]
- selectivity favoring the etomidate site (α1β3γ2 GABAAR [1]): 4 fold

SMILES: CC(C)c1cc(C(=O)c2ccccc2)cc(C(C)C)c1O [4-benzoylpropofol]
- high affinity R-mTFD-MPAB site favored over the etomidate site (α1β3γ2 GABAAR [1]): 200 fold
- low affinity R-mTFD-MPAB site favored over the etomidate sites (α1β3γ2 GABAAR [1]): 3 fold

SMILES: OCc1ccccc1 [BnOH, benzyl alcohol]
- LoRR at lower concentrations than modulation of [3H]muscimol binding (α1β3γ2L GABAARs [2]; tadpole LoRR vs HEK cell membranes): ~20 times
- modulation of [3H]muscimol binding (α1β3γ2L GABAARs [2]; up to 50 mM): no modulation

SMILES: CC(C)c1cccc(C(C)C)c1CO [Di-iPr-BnOH, (2,6-diisopropylphenyl)methanol]
- selectivity favoring the etomidate site over R-mTFD-MPAB site (α1β3γ2 GABAAR [3]): 2–3 fold

SMILES: NCCCC(=O)O [GABA, γ-aminobutyric acid]
- elicited currents (α1β3γ2L GABAARs [4]; 1 mM GABA): 3.2 ± 1.5 μA
- Hill coefficient nH of GABA concentration-response curve (α1β3γ2L GABAARs [4]; GABA alone): 1.0 ± 0.1

SMILES: CC(=O)c1cc(C(C)C)c(O)c(C(C)C)c1 [Me–CO–]
- selectivity favoring the R-mTFD-MPAB sites (α1β3γ2 GABAAR [1]): 1.5 fold

SMILES: CC(C)c1cc(C(O)c2ccccc2)cc(C(C)C)c1O (centres unmarked) [Ph–C(OH)–]
- selectivity favoring the R-mTFD-MPAB sites (α1β3γ2 GABAAR [1]): 5.3 fold

SMILES: CC(C)c1cccc(C(C)C)c1O [Propofol]
- extent of inhibition of [3H]pTFD-di-iPr-BnOH photolabeling (α1β3γ2L GABAARs [5]; 300 μM, β subunit): to the same extent as the background labeling
- EC50 (α1β3 GABAARs): 7 ± 1.7 µM
- selectivity favoring the etomidate site (α1β3γ2 GABAAR [1]): 5.5 fold

SMILES: C=CCC1(c2cccc(C3(C(F)(F)F)N=N3)c2)C(=O)NC(=O)N(C)C1=O (centres unmarked) [R–mTFD-MPAB, (5-allyl-1-methyl-5-(3-(3-(trifluoromethyl)-3H-diazirin-3-yl)phenyl)pyrimidine-2,4,6(1H,3H,5H)-trione)]
- non-specific [3H]R-mTFD-MPAB photolabeling (Bns) (α1β3γ2L GABAARs [6]; in the presence of 60 μM R-mTFD-MPAB): 13 ± 4%
- enhancement of GABA currents compared to wild type (α1(S270I)β3γ2L receptors): significantly reduced

SMILES: CC(=O)[C@H]1CC[C@H]2[C@@H]3CC[C@H]4C[C@H](O)CC[C@]4(C)[C@H]3CC[C@]12C [allopregnanolone]
- inhibition of [3H]pTFD-di-iPr-BnOH photoincorporation into the β subunit (α1β3γ2L GABAARs [5]): little inhibition of photolabeling

SMILES: CCOC(=O)c1cncn1[C@H](C)c1ccccc1 [etomidate]
- inhibition of [3H]pTFD-di-iPr-BnOH photoincorporation into the β subunit (α1β3γ2L GABAARs [5]): little inhibition of photolabeling
- non-specific [3H]azietomidate photolabeling (Bns) (α1β3γ2L GABAARs [7]): 13 ± 3%
- enhancement of GABA currents compared to wild type (α1(S270I)β3γ2L receptors): comparable to that in wild-type

SMILES: CC(C)c1cc(C2(C(F)(F)F)N=N2)cc(C(C)C)c1CO [pTFD-di-iPr-BnOH, (2,6-diisopropyl-4-(3-(trifluoromethyl)-3H-diazirin-3-yl)phenyl)methanol]
- fraction of tadpoles that did not recover from anesthesia (Xenopus laevis tadpoles; at 2 μM): 4/7
- fraction of tadpoles that did not recover from anesthesia (Xenopus laevis tadpoles; at 3 μM): 6/9
- fraction of tadpoles that did not recover from anesthesia (Xenopus laevis tadpoles; at 10 μM): 7/10
- increase in LoRR potency (Xenopus laevis tadpoles; relative to Di-iPr-BnOH): 6 fold
- IC50 (α1β3γ2L GABAARs [6]): 73 ± 10 µM
- reduction of enhancement compared to wild type (α1(S270I)β3γ2L receptors; 10 μM pTFD-di-iPr-BnOH): more than 50%

SMILES: CC(C)c1cc(C(C)(C)C)cc(C(C)C)c1O [t-Bu–]
- selectivity favoring the R-mTFD-MPAB sites (α1β3γ2 GABAAR [1]): 8 fold
